In patent US20120208809A1, “9H-PYRROLO[2,3-B: 5,4-C'] DIPYRIDINE AZACARBOLINE DERIVATIVES, PREPARATION THEREOF, AND THERAPEUTIC USE THEREOF” (SANOFI, priority 2009, published 2012):

Experiments:
PLK1 = PLK1 (Homo sapiens, UniProt P53350); assay: Biochemical results, IC50 PLK1
CDK1 = CDK1 (Homo sapiens, UniProt P06493); assay: Biochemical results, IC50 CDK1
Pim-3 = molecular target: T1, Pim-3 (Homo sapiens, UniProt Q86V86); assay: TR-FRET assay of Pim kinase activity (phosphorylation of Bad Ser112), Pim-3; assay type: biochemical; conditions: ATP 40 μM, read-out: IC50 Pim3
T1 construct: full-length human recombinant His6-labelled Pim-1, Pim-2 or Pim-3 protein; His6; made in house
Experimental: (§1) In order to determine the inhibition of Pim kinase activity, the compounds of the invention are tested in accordance with a routinely-used in-vitro TR-FRET assay (“Time Resolved-Fluorescence Resonance Energy Transfer”). […] For the assay, the following reagents are used:
(§2) Pim kinase—full-length human recombinant His6-labelled Pim-1, Pim-2 or Pim-3 protein (prepared according to J. Mol. Biol. (2005) 348, 183-193); Bad—full-length human recombinant His6-labelled Bad protein (prepared according to J. Mol. Biol. (2005) 348, 183-193); α-His6-APC—mouse monoclonal antibody conjugated to allophycocyanine SureLight™ directed against the His6 label (Perkin-Elmer, No. AD0059H, Waltham, Mass., United States); α-P˜Bad-Eu—mouse monoclonal antibody (Cell Signaling Technology #9296B, Danvers, Mass., United States) directed against phosphoBad (Ser112) (7E11) labelled on request by Perkin-Elmer with the reagent LANCE™ Eu-W1024.
(§3) The assay is based on the LANCE™ technology from Perkin-Elmer: the Eu-labelled antibody binds to phospho-Ser112 and generates a TR-FRET signal by interaction with the […] antibody directed against His6, bound to the His6 label of Bad. The TR-FRET signal is detected using a SpectraMax M5 plate reader (Molecular Devices) with the following settings: λex=340 nm, λem1=615 nm, λem2=665 nm. The ratio of the fluorescence signal at 665 nm to the fluorescence signal at 615 nm is used as the signal reading for the IC50 (calculations based on the 4-parameter logistic model). The assay is performed in 384-well format; the liquid manipulations are performed using a Beckmann 3000 liquid manipulation station. The test compounds are tested at 10 concentration points in duplicate; the highest concentration of compound is typically equal to 30 μM. The ATP concentration is equal to 40 μM.

MV4-11 = assay: Cell viability assay (CellTiter-Blue), MV4-11; assay type: cell-based; conditions: Homo sapiens, read-out: EC50 MV4-11 μM (acute myeloid leukemia), MV4-11 cells, read-out: EC50 MV4-11 μM (myeloma)
Experimental: (§4) The representative compounds of the invention are also screened as regards their effects on cell proliferation and viability, using a variety of tumoral cell lines of human source, representative of different pathological indications. These cell lines include:
(§5) In order to measure the viability, the tumour cells are incubated in 96-well or 384-well format for 48, 72 or 96 hours, preferably 72 hours, with a compound of the invention at dilutions of a factor 3, with, in general, nine doses in total, the highest dose being equal to 10 μM or 30 μM. The cell viability is evaluated by adding CellTiter-Blue® (Promega, Madison, Wis., United States) for 4 hours and endpoint readings are taken using a SpectraMax Genmini EM plate reader (Molecular Devices, Sunnyvale, Calif., United States). The CellTiter-Blue® cell viability assay measures the ability of the cells in culture to reduce resazurin to resorufin, the intensity of the fluorescence signal being directly proportional to the number of live cells. The EC50 represents the concentration of compound that leads to a 50% reduction of the viability/proliferative expansion of the cells.

Pim-2 = molecular target: T2, Pim-2 (Homo sapiens, UniProt Q9P1W9); assay: TR-FRET assay of Pim kinase activity (phosphorylation of Bad Ser112), Pim-2; assay type: biochemical; conditions: ATP 40 μM, read-out: IC50 Pim2
T2 construct: full-length human recombinant His6-labelled Pim-1, Pim-2 or Pim-3 protein; His6; made in house
Experimental: as §1, §2, §3

EOL-1 = assay: Cell viability assay (CellTiter-Blue), EOL-1; assay type: cell-based; conditions: Homo sapiens, EOL1, read-out: EC50 EOL-1 μM (eosinophilic leukaemia), EOL-1 cells, read-out: EC50 EOL-1 μM (lymphoma);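 note: EOL-1 is an acute myeloid eosinophilic leukaemia line not a lymphoma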
Description: as §4
Models of Haematological Cancers: • TF-1 (acute myelogenic leukaemia; AML M6 at the time of diagnosis); • K G-1 (AML; erythroleukaemia evolving into AML); • KG-1a (AML; subclone derived from immature KG-1); • EOL-1 (AML: eosinophilic leukaemia); • PL-21 (AML; M3); • ML-2 (AML; T-NHL evolving into T-ALL evolving into AML M4); • HL-60 (AML, M3); • Kasumi-1 (AML); • GDM-1 (AML); • K-562 (CML—chronic myelogenic leukaemia; blastic crisis); • JURL-MK1 (CML; blastic crisis); • DND-41 (T-ALL—T-cell acute lymphoblastic leukaemia); • Jurkat (T-ALL); NALM-6 (B-ALL B-cell ALL); • CEM (ALL; lymphosarcoma evolving into ALL); • Jeko-1 (B-NHL—B-cell non-Hodgkin lymphoma; lymphoma with coat cells derived from a large-cell variant in leukaemic transformation); • WSU-DLCL2 (B-NHL; diffuse lymphoma with large B cells); • RL (B-NHL; undifferentiated diffuse); • OCl-Ly10 (B-NHL); • DoHH-2 (B-NHL); • RPMI-8226 (MM—multiple myelomas); • JVM-2 (B-CLL—B-cell chronic lymphocytic leukaemia); and • JVM-3 (B-CLL).
as §5

Pim-1 = molecular target: T3, Pim-1 (Homo sapiens, UniProt P11309); assay: TR-FRET assay of Pim kinase activity (phosphorylation of Bad Ser112), Pim-1; assay type: biochemical; conditions: ATP 40 μM, read-out: IC50 Pim1
T3 construct: full-length human recombinant His6-labelled Pim-1, Pim-2 or Pim-3 protein; His6; made in house
Experimental: as §1, §2, §3

T2 sequence (Q9P1W9 whole entry): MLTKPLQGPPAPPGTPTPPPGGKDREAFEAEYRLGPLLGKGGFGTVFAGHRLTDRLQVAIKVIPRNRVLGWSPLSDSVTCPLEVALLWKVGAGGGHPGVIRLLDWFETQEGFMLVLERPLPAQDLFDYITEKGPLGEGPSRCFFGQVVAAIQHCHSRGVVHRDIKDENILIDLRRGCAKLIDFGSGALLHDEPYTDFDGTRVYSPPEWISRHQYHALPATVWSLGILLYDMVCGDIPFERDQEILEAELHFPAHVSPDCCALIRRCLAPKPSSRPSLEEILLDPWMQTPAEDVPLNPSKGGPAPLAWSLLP
PLK1, sequence (P53350 whole entry, species assumed): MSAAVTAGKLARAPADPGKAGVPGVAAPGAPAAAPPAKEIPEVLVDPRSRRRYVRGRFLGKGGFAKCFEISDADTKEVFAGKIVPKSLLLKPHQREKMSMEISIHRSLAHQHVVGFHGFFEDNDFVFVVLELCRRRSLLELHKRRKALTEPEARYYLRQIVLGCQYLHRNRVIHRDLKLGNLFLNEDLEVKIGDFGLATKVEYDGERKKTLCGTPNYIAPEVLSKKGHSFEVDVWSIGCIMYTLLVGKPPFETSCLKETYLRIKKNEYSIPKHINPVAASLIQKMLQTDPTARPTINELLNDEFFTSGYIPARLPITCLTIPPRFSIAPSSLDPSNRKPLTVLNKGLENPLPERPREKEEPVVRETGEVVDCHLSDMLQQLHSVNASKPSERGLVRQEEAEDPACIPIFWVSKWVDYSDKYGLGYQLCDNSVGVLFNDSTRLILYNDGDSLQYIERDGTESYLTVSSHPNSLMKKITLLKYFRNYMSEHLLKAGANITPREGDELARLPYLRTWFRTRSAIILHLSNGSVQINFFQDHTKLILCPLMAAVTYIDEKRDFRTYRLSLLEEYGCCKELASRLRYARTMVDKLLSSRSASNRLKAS
CDK1, sequence (P06493 whole entry, species assumed): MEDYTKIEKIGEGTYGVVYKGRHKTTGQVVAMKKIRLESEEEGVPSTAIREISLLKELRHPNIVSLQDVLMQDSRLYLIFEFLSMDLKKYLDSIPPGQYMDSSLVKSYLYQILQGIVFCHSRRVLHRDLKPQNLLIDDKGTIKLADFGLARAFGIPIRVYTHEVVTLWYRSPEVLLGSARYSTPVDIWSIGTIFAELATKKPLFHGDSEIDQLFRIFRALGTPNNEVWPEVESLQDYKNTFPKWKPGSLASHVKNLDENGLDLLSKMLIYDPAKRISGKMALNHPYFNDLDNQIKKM
CDK1, sequence (P14635 whole entry partner, species assumed): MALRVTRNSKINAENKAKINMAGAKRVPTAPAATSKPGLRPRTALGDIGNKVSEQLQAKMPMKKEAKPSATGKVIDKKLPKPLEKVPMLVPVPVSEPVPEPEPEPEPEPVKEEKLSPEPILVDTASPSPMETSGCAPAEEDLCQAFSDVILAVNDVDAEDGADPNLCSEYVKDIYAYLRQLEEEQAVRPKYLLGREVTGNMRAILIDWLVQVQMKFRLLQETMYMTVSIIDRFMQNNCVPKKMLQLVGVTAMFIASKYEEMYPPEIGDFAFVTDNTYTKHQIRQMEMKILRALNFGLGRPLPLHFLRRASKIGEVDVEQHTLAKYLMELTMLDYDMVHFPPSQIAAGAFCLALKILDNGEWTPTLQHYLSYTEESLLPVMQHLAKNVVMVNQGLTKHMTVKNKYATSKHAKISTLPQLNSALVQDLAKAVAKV
T3 sequence (P11309 whole entry): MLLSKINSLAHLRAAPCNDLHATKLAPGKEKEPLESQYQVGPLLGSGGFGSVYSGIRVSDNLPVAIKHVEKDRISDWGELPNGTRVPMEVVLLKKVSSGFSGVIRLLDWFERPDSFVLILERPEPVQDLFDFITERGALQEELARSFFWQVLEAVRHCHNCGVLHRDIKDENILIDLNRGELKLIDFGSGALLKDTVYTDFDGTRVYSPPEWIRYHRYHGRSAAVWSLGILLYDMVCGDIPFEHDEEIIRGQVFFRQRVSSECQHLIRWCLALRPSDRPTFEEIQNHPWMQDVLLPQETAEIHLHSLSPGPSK

SMILES | IC50 (PLK1) [nM] | IC50 (CDK1) [nM] | IC50 (Pim-3) [nM] | EC50 (MV4-11) [nM] | IC50 (Pim-2) [nM] | EC50 (EOL-1) [nM] | IC50 (Pim-1) [nM]
CN1CC(NC(=O)c2ccc(-c3c(F)cnc4[nH]c5cnc(-c6cccnc6)cc5c34)cc2)C1 [Example 56, 4-[3-fluoro-6-(pyridin-3-yl)-9H-pyrrolo[2,3-b:5,4-c′]dipyridin-4-yl]-N-(1-methylazetidin-3-yl)benzamide] | 100 to 1000 | 100 to 1000 | < 100 | < 100 | < 100 | < 100 | < 100
O=C(NCc1ccnc(O)c1)c1ccc(-c2c(F)cnc3[nH]c4cnc(-c5cccnc5)cc4c23)cc1 [Example 82, 4-[3-fluoro-6-(pyridin-3-yl)-9H-pyrrolo[2,3-b:5,4-c′]dipyridin-4-yl]-N-[(2-hydroxypyridin-4-yl)methyl]benzamide] | 100 to 1000 | 100 to 1000 | < 100 |  | 100 to 1000 |  | < 100
N[C@H]1CCCC[C@@H]1NC(=O)c1ccc(-c2c(F)cnc3[nH]c4cnc(-c5cccnc5)cc4c23)cc1 [Example 84, N-[(1S,2S)-2-aminocyclohexyl]-4-[3-fluoro-6-(pyridin-3-yl)-9H-pyrrolo[2,3-b:5,4-c′]dipyridin-4-yl]benzamide] | 100 to 1000 | 100 to 1000 | < 100 |  | < 100 |  | < 100
CCNCCNC(=O)c1ccc(-c2c(F)cnc3[nH]c4cnc(-c5cccnc5)cc4c23)cc1 [Example 87, N-[2-(ethylamino)ethyl]-4-[3-fluoro-6-(pyridin-3-yl)-9H-pyrrolo[2,3-b:5,4-c′]dipyridin-4-yl]benzamide] | 100 to 1000 | 100 to 1000 | < 100 | 100 to 1000 | < 100 | 100 to 1000 | < 100
CNCCNC(=O)c1ccc(-c2c(F)cnc3[nH]c4cnc(-c5cccnc5)cc4c23)cc1 [Example 88, 4-[3-fluoro-6-(pyridin-3-yl)-9H-pyrrolo[2,3-b:5,4-c′]dipyridin-4-yl]-N-[2-(methylamino)ethyl]benzamide] | 100 to 1000 | 100 to 1000 | < 100 |  | < 100 |  | < 100
NC1(CNC(=O)c2ccc(-c3c(F)cnc4[nH]c5cnc(-c6cccnc6)cc5c34)cc2)CC1 [Example 89, N-[(1-aminocyclopropyl)methyl]-4-[3-fluoro-6-(pyridin-3-yl)-9H-pyrrolo[2,3-b:5,4-c′]dipyridin-4-yl]benzamide] | 100 to 1000 | 100 to 1000 | < 100 | 100 to 1000 | < 100 | 100 to 1000 | < 100
NCC(F)(F)CNC(=O)c1ccc(-c2c(F)cnc3[nH]c4cnc(-c5cccnc5)cc4c23)cc1 [Example 90, N-(3-amino-2,2-difluoropropyl)-4-[3-fluoro-6-(pyridin-3-yl)-9H-pyrrolo[2,3-b:5,4-c′]dipyridin-4-yl]benzamide] | 100 to 1000 | 100 to 1000 | < 100 | 100 to 1000 | 100 to 1000 | 100 to 1000 | < 100
CC(N)(CNC(=O)c1ccc(-c2c(F)cnc3[nH]c4cnc(-c5cccnc5)cc4c23)cc1)C(F)(F)F (stereo not drawn) [Example 91, N-(2-amino-3,3,3-trifluoro-2-methylpropyl)-4-[3-fluoro-6-(pyridin-3-yl)-9H-pyrrolo[2,3-b:5,4-c′]dipyridin-4-yl]benzamide] | 100 to 1000 | 100 to 1000 | 100 to 1000 |  | 1000 to 5000 |  | 100 to 1000
CN1CCN(NC(=O)c2ccc(-c3c(F)cnc4[nH]c5cnc(-c6cnn(C)c6)cc5c34)cc2)CC1 [Example 99, 4-[3-fluoro-6-(1-methyl-1H-pyrazol-4-yl)-9H-pyrrolo[2,3-b:5,4-c′]dipyridin-4-yl]-N-(4-methylpiperazin-1-yl)benzamide] | > 5000 | 1000 to 5000 | < 100 |  | 100 to 1000 |  | < 100
Cn1cc(-c2cc3c(cn2)[nH]c2ncc(F)c(-c4ccc(C(N)=O)cc4)c23)cn1 [Example 104, 4-[3-fluoro-6-(1-methyl-1H-pyrazol-4-yl)-9H-pyrrolo[2,3-b:5,4-c′]dipyridin-4-yl]benzamide] | 100 to 1000 | 100 to 1000 | < 100 |  | 100 to 1000 |  | < 100
CN1CCN(NC(=O)c2ccc(-c3c(F)cnc4[nH]c5cnc(-c6cnn(C)c6Cl)cc5c34)cc2)CC1 [Example 106, 4-[6-(5-chloro-1-methyl-1H-pyrazol-4-yl)-3-fluoro-9H-pyrrolo[2,3-b:5,4-c′]dipyridin-4-yl]-N-(4-methylpiperazin-1-yl)benzamide] | 1000 to 5000 | 100 to 1000 | < 100 | 100 to 1000 | < 100 | < 100 | < 100
CN1CCC(NC(=O)c2ccc(-c3c(F)cnc4[nH]c5cnc(-c6cnn(C)c6Cl)cc5c34)cc2)CC1 [Example 107, 4-[6-(5-chloro-1-methyl-1H-pyrazol-4-yl)-3-fluoro-9H-pyrrolo[2,3-b:5,4-c′]dipyridin-4-yl]-N-(1-methylpiperidin-4-yl)benzamide] | > 5000 | 1000 to 5000 | < 100 | 100 to 1000 | < 100 | 100 to 1000 | < 100
